One data set has as its target Glutamate NMDA receptor. Put plainly: Positive allosteric modulation of NMDAR in rat hippocampal neurons by Whole-cell and excised-patch recording method. As to conditions: hippocampal neuron.
The target in data set [1] is T1, Glutamate receptor ionotropic, NMDA 2A (Homo sapiens, UniProt Q05586+Q12879). Put plainly: Positive allosteric modulation of GluN2A receptor (unknown origin) expressed in Doxycycline-inducible HEK293 cells by calcium influx assay.
The target of data set [2] is T2, Glutamate receptor ionotropic, NMDA 2B (Homo sapiens, UniProt Q05586+Q13224). The data set is described as follows: Positive allosteric modulation of GluN2B receptor (unknown origin) expressed in Doxycycline-inducible HEK293 cells by calcium influx assay.
Data set [3] concerns the target T3, Glutamate receptor ionotropic, NMDA 2C (Homo sapiens, UniProt Q05586+Q14957). The data set is described as follows: Positive allosteric modulation of GluN2C receptor (unknown origin) expressed in Doxycycline-inducible HEK293 cells by calcium influx assay.
The target of data set [4] is T4, Glutamate receptor ionotropic, NMDA 2D (Homo sapiens, UniProt O15399+Q05586). Put plainly: Positive allosteric modulation of GluN2D receptor (unknown origin) expressed in Doxycycline-inducible HEK293 cells by calcium influx assay.
Data set [5] addresses T5, Glutamate receptor ionotropic, NMDA 2B (Rattus norvegicus, UniProt P35439+Q00960).
Description: (§1) Positive allosteric modulation of recombinant rat GluN2B receptor expressed in Xenopus oocytes assessed as glutamate/glycine-induced potentiation of current by 2EVC method
For data set [6], the target named is T6, Glutamate receptor ionotropic, NMDA 2C (Rattus norvegicus, UniProt P35439+Q00961).
T6 sequence (Q00961 whole entry, one chain of several): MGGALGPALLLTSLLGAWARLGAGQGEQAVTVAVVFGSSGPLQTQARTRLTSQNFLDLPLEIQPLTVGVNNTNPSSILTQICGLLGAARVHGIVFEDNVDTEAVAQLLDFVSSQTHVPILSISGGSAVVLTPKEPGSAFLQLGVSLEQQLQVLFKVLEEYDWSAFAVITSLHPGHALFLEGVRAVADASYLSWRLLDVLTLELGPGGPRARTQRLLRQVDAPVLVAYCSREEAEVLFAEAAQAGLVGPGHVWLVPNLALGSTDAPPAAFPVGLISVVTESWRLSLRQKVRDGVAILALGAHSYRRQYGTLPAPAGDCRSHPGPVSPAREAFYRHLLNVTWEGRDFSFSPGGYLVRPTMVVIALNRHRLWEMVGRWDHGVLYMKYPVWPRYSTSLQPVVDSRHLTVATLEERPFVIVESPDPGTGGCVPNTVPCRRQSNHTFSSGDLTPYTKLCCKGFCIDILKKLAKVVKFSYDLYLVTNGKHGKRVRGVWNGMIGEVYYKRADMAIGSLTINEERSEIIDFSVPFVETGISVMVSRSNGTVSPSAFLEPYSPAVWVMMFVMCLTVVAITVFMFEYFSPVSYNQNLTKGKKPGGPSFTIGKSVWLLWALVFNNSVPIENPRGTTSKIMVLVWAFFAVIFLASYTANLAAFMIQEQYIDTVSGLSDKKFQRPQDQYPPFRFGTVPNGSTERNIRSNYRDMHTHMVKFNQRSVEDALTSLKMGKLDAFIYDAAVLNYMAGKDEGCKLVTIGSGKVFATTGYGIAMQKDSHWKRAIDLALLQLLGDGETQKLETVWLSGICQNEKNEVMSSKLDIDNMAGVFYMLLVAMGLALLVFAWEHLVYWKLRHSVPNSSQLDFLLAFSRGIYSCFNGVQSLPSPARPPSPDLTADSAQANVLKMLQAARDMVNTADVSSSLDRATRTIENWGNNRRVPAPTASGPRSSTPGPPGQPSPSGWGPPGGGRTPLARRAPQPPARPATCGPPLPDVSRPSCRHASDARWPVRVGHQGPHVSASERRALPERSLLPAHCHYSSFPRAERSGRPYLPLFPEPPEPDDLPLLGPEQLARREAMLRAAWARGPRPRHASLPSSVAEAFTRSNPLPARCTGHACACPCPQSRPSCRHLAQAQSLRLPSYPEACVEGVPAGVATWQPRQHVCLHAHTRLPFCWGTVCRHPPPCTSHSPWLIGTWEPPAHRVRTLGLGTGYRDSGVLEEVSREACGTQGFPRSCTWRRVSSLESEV
Description: (§2) Positive allosteric modulation of recombinant rat GluN2C receptor expressed in Xenopus oocytes assessed as glutamate/glycine-induced potentiation of current by 2EVC method
For data set [7], the target named is T7, Glutamate receptor ionotropic, NMDA 2D (Rattus norvegicus, UniProt P35439+Q62645).
T7 sequence (Q62645 whole entry, one chain of several): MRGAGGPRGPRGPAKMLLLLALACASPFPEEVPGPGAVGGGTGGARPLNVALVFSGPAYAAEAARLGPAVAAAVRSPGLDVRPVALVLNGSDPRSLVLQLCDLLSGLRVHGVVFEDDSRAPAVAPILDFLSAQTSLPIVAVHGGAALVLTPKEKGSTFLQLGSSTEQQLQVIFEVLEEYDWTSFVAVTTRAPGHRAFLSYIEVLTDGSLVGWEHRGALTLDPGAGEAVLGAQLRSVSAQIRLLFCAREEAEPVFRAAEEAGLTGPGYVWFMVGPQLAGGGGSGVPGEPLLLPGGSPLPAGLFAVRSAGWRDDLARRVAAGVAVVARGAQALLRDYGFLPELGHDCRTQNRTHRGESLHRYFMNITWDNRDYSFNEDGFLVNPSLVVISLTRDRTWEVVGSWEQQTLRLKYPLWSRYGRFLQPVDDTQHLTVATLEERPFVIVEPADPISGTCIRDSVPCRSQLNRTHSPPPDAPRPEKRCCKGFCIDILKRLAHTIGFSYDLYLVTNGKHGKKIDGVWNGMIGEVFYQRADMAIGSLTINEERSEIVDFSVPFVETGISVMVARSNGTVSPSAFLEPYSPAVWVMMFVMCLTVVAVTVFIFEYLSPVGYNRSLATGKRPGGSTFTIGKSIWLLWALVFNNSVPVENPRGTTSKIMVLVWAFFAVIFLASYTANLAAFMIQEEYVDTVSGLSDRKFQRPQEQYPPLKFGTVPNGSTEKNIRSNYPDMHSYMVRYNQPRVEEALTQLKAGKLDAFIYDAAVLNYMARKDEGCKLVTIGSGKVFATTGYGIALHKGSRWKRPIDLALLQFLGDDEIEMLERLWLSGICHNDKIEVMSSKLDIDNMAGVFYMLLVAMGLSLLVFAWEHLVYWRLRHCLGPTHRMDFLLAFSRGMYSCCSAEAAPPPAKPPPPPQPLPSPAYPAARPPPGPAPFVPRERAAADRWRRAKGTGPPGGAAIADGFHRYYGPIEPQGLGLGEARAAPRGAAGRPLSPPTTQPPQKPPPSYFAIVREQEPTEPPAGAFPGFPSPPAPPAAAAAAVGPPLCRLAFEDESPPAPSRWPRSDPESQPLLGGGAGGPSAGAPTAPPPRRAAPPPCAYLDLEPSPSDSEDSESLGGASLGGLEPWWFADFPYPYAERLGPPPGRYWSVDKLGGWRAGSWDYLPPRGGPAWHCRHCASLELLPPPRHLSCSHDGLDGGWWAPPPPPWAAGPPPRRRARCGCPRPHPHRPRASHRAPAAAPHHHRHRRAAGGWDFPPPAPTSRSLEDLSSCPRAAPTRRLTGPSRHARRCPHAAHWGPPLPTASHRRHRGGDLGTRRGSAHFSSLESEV
Description: (§3) Positive allosteric modulation of recombinant rat GluN2D receptor expressed in Xenopus oocytes assessed as glutamate/glycine-induced potentiation of current by 2EVC method
The nature of data set [8]: Kinetic solubility of compound in PBS at pH 7.3 by nephelometry.
A short description of data set [9]: Stability in human plasma assessed as half life.
A short description of data set [10]: Stability in mouse plasma assessed as half life.
Data set [11] is described as follows: Stability in rat plasma assessed as half life.
The target in data set [12] is T5, Glutamate receptor ionotropic, NMDA 2B. The source holds these as a separate data set.
Description: Positive allosteric modulation of recombinant rat GluN2B receptor expressed in Xenopus laevis stage VI oocytes assessed as glutamate/glycine-induced potentiation of current by 2EVC method
Data set [13] has as its target T6, Glutamate receptor ionotropic, NMDA 2C. The source holds these as a separate data set.
Description: Positive allosteric modulation of recombinant rat GluN2C receptor expressed in Xenopus laevis stage VI oocytes assessed as glutamate/glycine-induced potentiation of current by 2EVC method
The target of data set [14] is T7, Glutamate receptor ionotropic, NMDA 2D. This is another data set of the same source.
Description: Positive allosteric modulation of recombinant rat GluN2D receptor expressed in Xenopus laevis stage VI oocytes assessed as glutamate/glycine-induced potentiation of current by 2EVC method
Another data set can be described thus: in vitro. As to conditions: human, liver microsomes.
The target of data set [15] is Glutamate receptor ionotropic, NMDA 2B (Rattus norvegicus, UniProt Q00960). As to conditions: oocyte.
Chain of Glutamate receptor ionotropic, NMDA 2B (Rattus norvegicus, UniProt Q00960) (Q00960 whole entry): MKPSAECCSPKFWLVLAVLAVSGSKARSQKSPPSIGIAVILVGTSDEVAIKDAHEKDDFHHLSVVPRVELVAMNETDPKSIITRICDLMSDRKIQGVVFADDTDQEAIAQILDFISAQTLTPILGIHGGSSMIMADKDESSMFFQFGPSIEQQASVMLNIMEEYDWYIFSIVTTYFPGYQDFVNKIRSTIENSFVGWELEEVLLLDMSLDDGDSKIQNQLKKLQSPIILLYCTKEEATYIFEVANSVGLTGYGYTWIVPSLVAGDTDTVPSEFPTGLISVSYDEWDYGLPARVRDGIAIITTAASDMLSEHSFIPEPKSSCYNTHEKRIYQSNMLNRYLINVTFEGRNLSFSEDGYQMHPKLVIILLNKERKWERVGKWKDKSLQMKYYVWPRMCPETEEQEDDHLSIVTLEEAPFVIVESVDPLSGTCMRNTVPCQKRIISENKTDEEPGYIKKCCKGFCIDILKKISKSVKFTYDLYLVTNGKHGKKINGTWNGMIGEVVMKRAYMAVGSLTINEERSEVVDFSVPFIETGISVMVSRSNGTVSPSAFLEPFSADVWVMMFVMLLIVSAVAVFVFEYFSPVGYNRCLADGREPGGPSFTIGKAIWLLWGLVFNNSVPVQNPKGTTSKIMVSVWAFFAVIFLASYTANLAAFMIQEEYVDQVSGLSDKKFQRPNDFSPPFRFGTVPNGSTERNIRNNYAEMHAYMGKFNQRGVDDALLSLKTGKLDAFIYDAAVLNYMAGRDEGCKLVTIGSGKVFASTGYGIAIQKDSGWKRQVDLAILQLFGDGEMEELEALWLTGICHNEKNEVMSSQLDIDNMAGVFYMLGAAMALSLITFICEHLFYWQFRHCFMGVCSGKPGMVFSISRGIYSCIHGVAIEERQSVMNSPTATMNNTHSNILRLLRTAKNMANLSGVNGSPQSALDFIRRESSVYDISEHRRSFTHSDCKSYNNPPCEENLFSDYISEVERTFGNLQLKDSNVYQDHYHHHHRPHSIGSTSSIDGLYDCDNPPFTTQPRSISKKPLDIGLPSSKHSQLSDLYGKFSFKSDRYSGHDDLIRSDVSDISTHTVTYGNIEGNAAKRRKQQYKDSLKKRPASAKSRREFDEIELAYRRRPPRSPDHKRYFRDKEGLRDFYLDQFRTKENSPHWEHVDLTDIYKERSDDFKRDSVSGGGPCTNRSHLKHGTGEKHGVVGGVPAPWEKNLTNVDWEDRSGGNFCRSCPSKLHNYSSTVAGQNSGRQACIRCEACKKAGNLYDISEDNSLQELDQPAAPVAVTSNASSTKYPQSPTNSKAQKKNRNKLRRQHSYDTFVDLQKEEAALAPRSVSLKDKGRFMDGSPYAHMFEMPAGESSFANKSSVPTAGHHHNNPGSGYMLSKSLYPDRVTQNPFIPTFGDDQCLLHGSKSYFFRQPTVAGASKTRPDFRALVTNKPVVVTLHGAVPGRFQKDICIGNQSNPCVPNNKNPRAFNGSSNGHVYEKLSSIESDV
Description: as §1
In data set [16] the target is Glutamate receptor ionotropic, NMDA 2C (Rattus norvegicus, UniProt Q00961). The following applies: oocyte.
Chain of Glutamate receptor ionotropic, NMDA 2C (Rattus norvegicus, UniProt Q00961) (Q00961 whole entry): as the sequence (Q00961 whole entry, one chain of several) above
Description: as §2
In data set [17] the target is Glutamate receptor ionotropic, NMDA 2D (Rattus norvegicus, UniProt Q62645). The following applies: oocyte.
Chain of Glutamate receptor ionotropic, NMDA 2D (Rattus norvegicus, UniProt Q62645) (Q62645 whole entry): as the sequence (Q62645 whole entry, one chain of several) above
Description: as §3
Data set [18] is described as follows: Apparent permeability in MDCK-MDR1 cells. The following applies: dog.
Data set [19] can be described thus: Efflux ratio of apparent permeability in MDCK-MDR1 cells. The following applies: dog.
For a further data set, the target named is Translocator protein (Homo sapiens, UniProt P30536). The data set is described as follows: Inhibition of peripheral benzodiazepine receptor (unknown origin) by radioligand binding assay.
Chain of Translocator protein (P30536 whole entry): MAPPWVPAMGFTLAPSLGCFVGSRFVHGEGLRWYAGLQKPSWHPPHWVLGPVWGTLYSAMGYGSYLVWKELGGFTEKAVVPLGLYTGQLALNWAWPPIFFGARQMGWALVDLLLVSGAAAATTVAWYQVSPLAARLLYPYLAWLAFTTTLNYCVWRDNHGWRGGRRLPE
Data set [20] concerns the target T1, Glutamate receptor ionotropic, NMDA 2A. Put plainly: Positive allosteric modulation of GluN2A receptor (unknown origin).
Data set [21] concerns the target T3, Glutamate receptor ionotropic, NMDA 2C. The data set is described as follows: Positive allosteric modulation of GluN2C receptor (unknown origin).
In data set [22] the target is T4, Glutamate receptor ionotropic, NMDA 2D. The data set is described as follows: Positive allosteric modulation of GluN2D receptor (unknown origin).
The target of data set [23] is T2, Glutamate receptor ionotropic, NMDA 2B. The data set is described as follows: Positive allosteric modulation of human GluN2B receptor expressed in HEK293 cells by Whole-cell patch-clamp method. On the technique in general: Patch clamp records ionic current or voltage across a cell membrane.
The target of data set [24] is T3, Glutamate receptor ionotropic, NMDA 2C. The data set is described as follows: Positive allosteric modulation of human GluN2C receptor expressed in HEK293 cells by Whole-cell patch-clamp method.

From ChEMBL document CHEMBL6134891, “Thienopyrimidinone Derivatives as a GluN2B/C/D Biased, Positive Allosteric Modulator of the N-Methyl-d-Aspartate Receptor” (J Med Chem, 2025) come the findings set out here.

Converted amounts (≈) assume the structure as drawn.

Description for in vitro: Intrinsic clearance in human liver microsomes at 3 uM preincubated for 5 mins followed by NADPH addition measured up to 30 mins by LC-MS/MS analysis

As for `CC(C)[C@@H](O)CC[C@@H](C)[C@H]1CC[C@H]2[C@@H]3CC=C4C[C@@H](O)CC[C@]4(C)[C@H]3CC[C@]12C`, the EC50 – broadly, the concentration needed to bring the measured effect to its halfway point – on Glutamate NMDA receptor was found to be 1.2 µM.
`CCCc1nc2[nH]c(C)c(NS(=O)(=O)c3ccc(C4CCCCC4)cc3)c(=O)n2n1`: the EC50 in data set [1], in data set [2], in data set [3] and in data set [4] was 3 µM in each case.
Regarding `Cc1sc2ncn(CC(=O)N3CC(C)(F)C3)c(=O)c2c1-c1ccc2c(c1)OC(F)(F)O2`, the EC50 in data set [5] amounted to 2.8 µM; in [6], 13 µM; in data set [7], 13 µM.
As for `Cc1sc2ncn(CC(=O)N3CCCC3)c(=O)c2c1-c1cccc(Br)c1`, the solubility (kinetic) (in general, solubility judged after dilution from a stock solution rather than from solid) in data set [8] was greater than 100 µM. Also, the half-life in [9], in [10] and in data set [11] was greater than 4 h each time. Besides, the values for the EC50 in data set [12], in data set [13] and in [14] were 9.9 µM, 12 µM and 18 µM, respectively. The microsomal CLint (commonly the capacity of the preparation to metabolise the compound, expressed as a volume cleared per time) at 0.5 h, 3 µM in the data set “in vitro” amounted to 50 µL/min/mg.
Turning to `C#CC1(F)CN(C(=O)Cn2cnc3sc(C)c(-c4cccc(Br)c4)c3c2=O)C1`, the EC50 entry in data set [15], in data set [16] and in data set [17] was “Not_active” each time.
Turning to `CCCC1(F)CN(C(=O)Cn2cnc3sc(C)c(-c4cccc(Br)c4)c3c2=O)C1`, the EC50 in data set [6] was 13 µM; in data set [7], 11 µM; in data set [15] it was “Not_active”.
Turning to `CC1(F)CN(C(=O)Cn2cnc3sc(C(F)(F)F)c(-c4ccc(F)c(Br)c4)c3c2=O)C1`, the values for the EC50 in data set [5], in data set [6] and in data set [7] were 2.3 µM, 3.2 µM and 6.1 µM, respectively.
In the case of `CC1(F)CN(C(=O)Cn2cnc3sc(C#N)c(-c4ccc(F)c(Br)c4)c3c2=O)C1`, the kinetic solubility in data set [8] amounted to 45 µM (≈ 21.6 µg/mL). In addition, the half-life in data set [9], in data set [10] and in data set [11] was greater than 4 h each time. Further, the Papp – broadly, a coefficient for how fast a substance crosses the barrier – in data set [18] was 9.36 ×10⁻⁶ cm/s. In addition, in data set [19], the efflux ratio (as a rule, a quotient of directional permeabilities that is used to spot active efflux) turned out to be 4.66. Besides, the EC50 in data set [5] came to 0.36 µM; in [6] it was 0.94 µM; in data set [7], 0.89 µM. In addition, in the data set “in vitro”, the microsomal CLint at 0.5 h, 3 µM is 16 µL/min/mg.
Consider `C#Cc1sc2ncn(CC(=O)N3CC(C)(F)C3)c(=O)c2c1-c1ccc(F)c(Br)c1`, for which the affinity at Translocator protein corresponds to a Ki of 0.55 µM. Further, the EC50 in data set [5] was found to be 0.57 µM; in [6], 0.82 µM; in [7], 1.1 µM.
With `Cc1sc2ncn(CC(=O)N3CC[C@@H](O)C3)c(=O)c2c1-c1cccc(Br)c1`, the EC50 entry in data set [15], in data set [16] and in data set [17] was “Not_active” each time.
In the case of `Cc1sc2ncn(CC(=O)N3CC(C)(F)C3)c(=O)c2c1-c1ccc(F)c(OC(C)C)c1`, the values for the EC50 in data set [5], in data set [6] and in data set [7] were 2 µM, 5.2 µM and 5.8 µM, respectively.
In the same order, the values of `Cc1sc2ncn(CC(=O)N3CC(C)(F)C3)c(=O)c2c1-c1ccc2ccccc2c1` are 2 µM, 3 µM and 6.3 µM.
Consider `Cc1sc2ncn(CC(=O)N3CC(C)(F)C3)c(=O)c2c1-c1ccc(F)c(Br)c1`, for which the kinetic solubility in data set [8] turned out to be 34 µM (≈ 15.9 µg/mL). Besides, the half-life in [9], in data set [10] and in data set [11] was greater than 4 h throughout. In data set [18], the Papp is 19.6 ×10⁻⁶ cm/s. The efflux ratio in data set [19] was 1.98. In addition, the EC50 in [5] turned out to be 0.33 µM; in data set [6] it was 0.63 µM; in [7], 1.1 µM. In “in vitro”, the microsomal CLint at 0.5 h, 3 µM is 29 µL/min/mg.
For `CC1(F)CN(C(=O)Cn2cnc3scc(-c4ccc(F)c(Br)c4)c3c2=O)C1`, the solubility (kinetic) in data set [8] is 33 µM (≈ 15 µg/mL). The half-life in [9], in data set [10] and in data set [11] was greater than 4 h each time. The Papp in data set [18] was 16.6 ×10⁻⁶ cm/s. Further, the efflux ratio in [19] amounted to 2.04. Also, the values for the EC50 in data set [5], in data set [6] and in data set [7] were 0.74 µM, 0.87 µM and 2.1 µM, respectively. Also, the microsomal CLint at 0.5 h, 3 µM in “in vitro” was determined as 14 µL/min/mg.
Regarding `CCc1sc2ncn(CC(=O)N3CC(C)(F)C3)c(=O)c2c1-c1ccc(F)c(Br)c1`, the EC50 in data set [5] amounted to 1.8 µM; in [6], 3.14 µM; in [7] it was 4.7 µM.
For the compound `Cc1sc2ncn(CC(=O)N3CC(C)(F)C3)c(=O)c2c1-c1ccc(F)c(C(F)(F)F)c1`, the EC50 in data set [5] came to 0.6 µM; in data set [6] it was 1.6 µM; in data set [7] it was 2.4 µM.
Take `Cc1sc2ncn(CC(=O)N3CC(C)(F)C3)c(=O)c2c1-c1ccc(F)c(C#N)c1`: the EC50 in data set [5] came out at 1.3 µM; in [6], 4.2 µM; in data set [7] it was 4.8 µM.
On to `C[C@H](CC[C@](C)(O)C(F)(F)F)[C@H]1CC[C@H]2[C@@H]3CC=C4C[C@@](C)(O)CC[C@]4(C)[C@H]3CC[C@]12C` [DALZANEMDOR], for which the EC50 in [20], in data set [21] and in [22] was 0.079 µM throughout.
Consider `C[C@@H](O)[C@@H](C(N)=O)N1C[C@@]2(CCCN2C(=O)OC(C)(C)C)C1=O` [ZELQUISTINEL], for which the EC50 in data set [23] and in [24] was 9.7 µM each time.
